Assay results reported in patent publication US6620418B1, “Antiseptic/antifungal agent and endermic liniment composition which contains it” (Shiseido Company, Ltd., priority 1999, dated 2003).

Test system: Mold, yeast, and bacteria
Experiment: The antiseptic effectiveness evaluation test
Format: cell-based
Procedure: The Antiseptic Effectiveness Evaluation Test 30 ml of the sample was inoculated with microbe-containing fluid, and the change in the number of microbes was checked with the smearing method. Mold, yeast, and bacteria were used as the inoculation microbes. The antiseptic effectiveness was evaluated based on the changes in the number of the microbes in two weeks, and the obtained results were classified by using the following four step criterion. […] X: No reduction in microbes was observed.

CCCCC(CC)(CO)CO [2-n-butyl-2-ethyl-1,3-propanediol]
concentration at which an adequate effect on bacteria was confirmed (1,3-butylene glycol additionally blended into the composition): 0.1%
concentration of 2-n-butyl-2-ethyl-1,3-propanediol at which the compositions showed adequate antiseptic effectiveness (lotions of Table 1-2, effect on all the mold, yeast, and bacteria): ≥ 0.5%
